Measurements taken from PubChem BioAssay (NCI).
Several values for one entry are separate records, joined by “and”; a condition that tells them apart may be missing. Equal values may be shown once.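 Where inhibition never reached the appropriate level, the endpoint shown equals the highest concentration tested. Otherwise, values were interpolated linearly from a five-concentration, 48-hour dose response in 96-well plates. GI50 marks 50% less growth. TGI marks complete inhibition of growth.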

Columns and labels:
Test in all cases: inhibition of tumour cell growth, NCI panel, 48 h
HCC-2998 colon = test system: HCC-2998 colon
HOP-62 NSCLC = test system: HOP-62 NSCLC
HS 578T breast = test system: HS 578T breast
MOLT-4 leukemia = test system: MOLT-4 leukemia
NCI-H23 lung = test system: NCI-H23 lung
RXF 393 renal = test system: RXF 393 renal
SK-MEL-28 melanoma = test system: SK-MEL-28 melanoma
SK-OV-3 ovarian = test system: SK-OV-3 ovarian
SNB-19 CNS = test system: SNB-19 CNS
T-47D breast = test system: T-47D breast

Compound | TGI (HCC-2998 colon) | TGI (HOP-62 NSCLC) | GI50 (HS 578T breast) | TGI (HS 578T breast) | GI50 (MOLT-4 leukemia) | TGI (MOLT-4 leukemia) | GI50 (NCI-H23 lung) | TGI (NCI-H23 lung) | GI50 (RXF 393 renal) | TGI (RXF 393 renal) | GI50 (SK-MEL-28 melanoma) | TGI (SK-MEL-28 melanoma) | GI50 (SK-OV-3 ovarian) | TGI (SK-OV-3 ovarian) | GI50 (SNB-19 CNS) | TGI (SNB-19 CNS) | GI50 (T-47D breast) | TGI (T-47D breast) | GI50 (HCC-2998 colon) | GI50 (HOP-62 NSCLC)
CC(C)(C)c1cc(NC(=O)Cc2ccc(-c3cnc4cc(-c5cnn(CCN6CCOCC6)c5)ccc4n3)cc2)no1 | 50 µM and > 100 µM and > 3 µM | 50 µM and > 100 µM and > 3 µM | 0.132 µM and 0.235 µM and 0.0377 µM | 1.56 µM and 2.88 µM and > 2.8 µM | 0.26 µM and 0.429 µM and 0.115 µM | 50 µM and > 100 µM and > 3 µM | 0.627 µM and 1.08 µM and 0.131 µM | 50 µM and > 100 µM and > 3 µM | 0.179 µM and 0.274 µM and 0.0395 µM | 1.93 µM and 1.45 µM | 0.885 µM and 0.826 µM and 0.139 µM | 50 µM and > 100 µM and > 3 µM | 0.369 µM | 2.66 µM | 2.47 µM and 2.26 µM and 0.279 µM | 50 µM and > 100 µM and > 3 µM | 0.853 µM and 0.822 µM and 0.107 µM | 50 µM and > 100 µM and > 3 µM | – | –
CCCCCN(CCCCC)CC(O)c1ccc(Cl)c2ccccc12 (stereo unspecified) | 9.72 µM | 26.5 µM | 10.8 µM | 33.9 µM | 6.69 µM | 24 µM | 4.5 µM | 19.9 µM | 2.13 µM | 8 µM | 11.2 µM | 24.4 µM | 13.8 µM | 37.5 µM | 12.7 µM | 30.1 µM | 4.93 µM | 19.4 µM | 3.34 µM | 13.1 µM
Cc1ccc(NC(=O)c2sc3nc(C)c(C(O)c4ccccc4)cc3c2N)cc1 (stereo unspecified) | 5.73 µM | 23.6 µM | 0.327 µM | 10.3 µM | 0.643 µM | > 100 µM | 0.722 µM | > 100 µM | 0.333 µM | 3.29 µM | 0.772 µM | > 100 µM | 0.768 µM | 30.6 µM | 0.542 µM | > 100 µM | 0.471 µM | > 58.3 µM | 0.818 µM | 0.716 µM
Cn1c2ccccc2c2c3[nH]c(=O)[nH]c(=O)c3c3c4ccccc4n(C)c3c21 | > 100 µM | 5.83 µM | 2.44 µM | 8.21 µM | – | – | 3.47 µM | 19.4 µM | 1.74 µM | 5.25 µM | 4.5 µM | > 100 µM | 1.75 µM | 5.79 µM | 3.8 µM | 21.4 µM | 2.05 µM | 27.1 µM | 8.25 µM | 2.03 µM
CC[C@H](C)[C@H]1O[C@]2(C=C[C@@H]1C)C[C@@H]1C[C@@H](C/C=C(\C)[C@@H](O[C@H]3C[C@H](OC)[C@@H](O[C@H]4C[C@H](OC)[C@@H](NC)[C@H](C)O4)[C@H](C)O3)[C@@H](C)/C=C/C=C3\CO[C@@H]4[C@H](O)C(C)=C[C@@H](C(=O)O1)[C@]34O)O2 | 3.36 µM | 4 µM | 2.31 µM | 6.56 µM | 1.81 µM | 4.48 µM | 2.73 µM | 8.34 µM | 2.03 µM | 4.47 µM | 1.73 µM | 3.47 µM | 3.63 µM | 13.9 µM | 4.27 µM | 16.9 µM | 4.4 µM | 16.8 µM | 1.89 µM | 1.75 µM
C/C(=N\Nc1ccc(Cl)cn1)c1ccccn1 | 68.2 µM | > 42.1 µM | 0.616 µM | > 73.8 µM | 0.026 µM | > 42 µM | 0.0674 µM | > 100 µM | 0.188 µM | 24.9 µM | 0.25 µM | > 100 µM | 0.098 µM | 26.9 µM | 0.411 µM | > 100 µM | 0.0372 µM | > 38.8 µM | 0.554 µM | 0.167 µM
CON(C)C(=O)N1N=C(c2cc(F)ccc2F)SC1(CCCN)c1ccccc1 (stereo unspecified) | 4.34 µM and 4.41 µM | 18.4 µM and 15.7 µM | 0.0555 µM and < 0.01 µM | 17.4 µM and 21.8 µM | 0.0547 µM and < 0.01 µM | 20 µM and 18.2 µM | 0.0936 µM and < 0.01 µM | 21.9 µM and 14.8 µM | < 0.01 µM | 0.756 µM | 10.6 µM and 2.97 µM | 23.8 µM and 23.1 µM | < 0.01 µM | 12.6 µM and 12.8 µM | 0.109 µM and < 0.0132 µM | 23.2 µM and 23.7 µM | 0.0279 µM and < 0.01 µM | 18.7 µM and 18.2 µM | < 0.01 µM | 0.0545 µM and < 0.01 µM
COc1cc(NS(=O)(=O)c2ccc(-c3cnc(C4CC4)o3)cc2)ccc1F | 12.7 µM | 18.8 µM | 0.376 µM | 23.5 µM | 0.564 µM | > 100 µM | 0.989 µM | 21.4 µM | 0.276 µM | 6.52 µM | 1.77 µM | 23.5 µM | 0.606 µM | 34.6 µM | 0.441 µM | 24.5 µM | 0.436 µM | 38.9 µM | 1.09 µM | 0.646 µM
COc1ccc(OC)c(C(=O)c2oc3ccc(Br)cc3c2N)c1 | 12.8 µM | > 50.6 µM | 0.403 µM | > 64.8 µM | 0.425 µM | 23.7 µM | 0.649 µM | 24 µM | 0.3 µM | 1.69 µM | 0.61 µM | 26.2 µM | 0.515 µM | 7.07 µM | 0.901 µM | > 100 µM | 0.452 µM | > 67.6 µM | 1.32 µM | 0.49 µM
COc1ccccc1Cn1cc2c(c1-c1ccccc1)CCc1cnoc1-2 | > 100 µM | > 100 µM | 1.45 µM | 6.32 µM | 3.42 µM | > 100 µM | 3.36 µM | 74 µM | 2.57 µM | > 100 µM | 27 µM | > 100 µM | 3.5 µM | > 100 µM | 5.4 µM | > 100 µM | 4.49 µM | > 100 µM | 5.48 µM | 3.73 µM
CCN(CC)CCCC(C)Nc1cnc(C(=O)Nc2cccc3ccc(OC)nc23)cn1 (stereo unspecified) | 3.46 µM | 3.71 µM | 11 µM | 28.5 µM | 2.04 µM | 4.67 µM | 2.44 µM | 5.63 µM | 1.25 µM | 2.86 µM | 1.74 µM | 3.13 µM | 15 µM | 28.4 µM | 3.11 µM | 10.9 µM | 1.85 µM | 3.95 µM | 1.82 µM | 1.83 µM
O=c1[nH]c(=O)n(C2OC(CO)C(O)C(O)C2O)cc1F (stereo unspecified) | > 100 µM | > 100 µM | – | > 100 µM | – | > 100 µM | – | > 100 µM | – | > 100 µM | – | > 100 µM | – | > 100 µM | – | > 100 µM | – | > 100 µM | – | –
